Test results: ChEMBL document CHEMBL5113447, “Synthesis of baicalein derivatives and evaluation of their antiviral activity against arboviruses” (Bioorg Med Chem Lett, 2022)

How the values were obtained:
Chikungunya virus [1] = assay: Antiviral activity against CHIKV infected in human Huh-7 cells assessed as inhibition of viral infection by measuring EGFP-positive cells measured 24 hrs post infection by fluorescent microscopic analysis; assay type: functional, organism-based; conditions: Huh-7, 24 h
West Nile virus [2] = assay: Antiviral activity against WNV infected in human Huh-7 cells assessed as inhibition of viral infection at 20 uM measured 24 hrs post infection by immunofluorescent assay relative to control; assay type: functional
Zika virus [3] = assay: Antiviral activity against ZIKV infected in human Huh-7 cells assessed as inhibition of viral infection at 20 uM measured 24 hrs post infection by immunofluorescent assay relative to control; assay type: functional
[4] = Cytotoxicity against human Huh-7 cells assessed as reduction in cell viability incubated for 24 hrs by CCK-8 assay; assay type: toxicity, cell-based
West Nile virus [5] = assay: Antiviral activity against WNV infected in human Huh-7 cells assessed as inhibition of viral infection measured 24 hrs post infection by immunofluorescent assay; assay type: functional, organism-based; conditions: Huh-7, 24 h
Zika virus [6] = assay: Antiviral activity against ZIKV infected in human Huh-7 cells assessed as inhibition of viral infection measured 24 hrs post infection by immunofluorescent assay; assay type: functional, organism-based; conditions: Huh-7, 24 h
Chikungunya virus [7] = assay: Potency index, ratio of baicalein IC50 to test compound IC50 for antiviral activity against CHIKV infected in human Huh-7 cells assessed as inhibition of viral infection by measuring EGFP-positive cells measured 24 hrs post infection by fluorescent microscopic analysis; assay type: functional
West Nile virus [8] = assay: Potency index, ratio of baicalein IC50 to test compound IC50 for antiviral activity against WNV infected in human Huh-7 cells assessed as inhibition of viral infection measured 24 hrs post infection by immunofluorescent assay; assay type: functional
Zika virus [9] = assay: Potency index, ratio of baicalein IC50 to test compound IC50 for antiviral activity against ZIKV infected in human Huh-7 cells assessed as inhibition of viral infection measured 24 hrs post infection by immunofluorescent assay; assay type: functional

| Compound | IC50 (Chikungunya virus [1]) | inhibition at 20 µM (West Nile virus [2]) | inhibition at 20 µM (Zika virus [3]) | CC50 at 24 h [4] | IC50 (West Nile virus [5]) | IC50 (Zika virus [6]) | Ratio IC50 (Chikungunya virus [7]) | Ratio IC50 (West Nile virus [8]) | Ratio IC50 (Zika virus [9]) |
| --- | --- | --- | --- | --- | --- | --- | --- | --- | --- |
| COc1c(OC)c(OC)c2c(=O)cc(-c3ccccc3)oc2c1-c1ccc(OC(F)(F)F)cc1 | 17.8 µM | < 50% | < 50% | > 100 µM |  |  |  |  |  |
| COc1cc2oc(-c3ccccc3)cc(=S)c2c(OC)c1OC | 9.7 µM | < 50% | < 50% | > 100 µM |  |  |  |  |  |
| O=c1cc(-c2ccc(N3CCN(c4cccc(Cl)c4)CC3)cc2)oc2cc(O)c(O)c(O)c12 | 4.3 µM |  |  | > 100 µM | 5.1 µM | 5.7 µM |  |  |  |
| CN1CCN(c2ccc(-c3cc(=O)c4c(O)c(O)c(O)cc4o3)cc2)CC1 | 8.9 µM | < 50% | < 50% | > 100 µM |  |  |  |  |  |
| COc1cc2oc(-c3ccc(N4CCN(C)CC4)cc3)cc(=O)c2c(OC)c1OC | 11.5 µM | < 50% | < 50% | > 100 µM |  |  |  |  |  |
| O=c1cc(-c2ccc(Nc3ccc(Br)cc3)cc2)oc2cc(O)c(O)c(O)c12 | 5.2 µM |  |  | > 100 µM | 4.1 µM | 6.7 µM |  |  |  |
| Oc1c(O)c(O)c2c(=S)cc(-c3ccccc3)oc2c1-c1ccc(C(F)(F)F)cc1 | 2.7 µM |  |  | > 100 µM | 2.1 µM | 3.8 µM | >5 | >6 | >5 |
| O=c1cc(-c2ccccc2)oc2c(-c3ccc(OC(F)(F)F)cc3)c(O)c(O)c(O)c12 | 5.2 µM |  |  | > 100 µM | 6.4 µM | 8.3 µM |  |  |  |
| O=c1cc(-c2ccccc2)oc2c(-c3cccc(F)c3)c(O)c(O)c(O)c12 | 4.3 µM |  |  | > 100 µM | 2.9 µM | 3.5 µM |  |  | >5 |
| Cc1ccc(-c2c(O)c(O)c(O)c3c(=O)cc(-c4ccccc4)oc23)cc1 | 7.9 µM | < 50% | < 50% | > 100 µM |  |  |  |  |  |
| Oc1cc2oc(-c3ccccc3)cc(=S)c2c(O)c1O | 7.6 µM | < 50% | < 50% | > 100 µM |  |  |  |  |  |
| O=c1cc(-c2ccc(Nc3ccc(F)cc3)cc2)oc2cc(O)c(O)c(O)c12 | 4.8 µM |  |  | > 100 µM | 4.5 µM | 6.9 µM |  |  |  |
| O=c1cc(-c2ccc(Nc3ccc(Cl)cc3)cc2)oc2cc(O)c(O)c(O)c12 | 3.4 µM |  |  | > 100 µM | 2.4 µM | 1.9 µM | >5 | >6 | >5 |
| O=c1cc(-c2ccccc2)oc2c(-c3ccc(F)cc3)c(O)c(O)c(O)c12 | 4.2 µM |  |  | > 100 µM | 3.1 µM | 2.5 µM |  |  | >5 |
| Cc1cccc(-c2c(O)c(O)c(O)c3c(=O)cc(-c4ccccc4)oc23)c1 | 8.7 µM | < 50% | < 50% | > 100 µM |  |  |  |  |  |
| Oc1c(O)c(O)c2c(=S)cc(-c3ccccc3)oc2c1-c1ccc(F)cc1 | 4.7 µM |  |  | > 100 µM | 6.2 µM | 7.7 µM |  |  |  |
| Oc1c(O)c(O)c2c(=S)cc(-c3ccccc3)oc2c1-c1cccc(F)c1 | 9.7 µM | < 50% | < 50% | > 100 µM |  |  |  |  |  |
| O=c1cc(-c2ccccc2)oc2c(-c3cc(F)cc(F)c3)c(O)c(O)c(O)c12 | 8.6 µM | < 50% | < 50% | > 100 µM |  |  |  |  |  |
| O=c1cc(-c2ccccc2)oc2c(-c3ccccc3)c(O)c(O)c(O)c12 | 5.8 µM |  |  | 86.3 µM | 3.1 µM | 5.8 µM |  |  |  |
| O=c1cc(-c2ccccc2)oc2cc(O)c(O)c(O)c12 [BAICALEIN] | 16.9 µM |  |  | > 100 µM | 14.5 µM | 19.6 µM |  |  |  |
| O=c1cc(-c2ccc(N3CCN(c4ccc(O)cc4)CC3)cc2)oc2cc(O)c(O)c(O)c12 | 5.9 µM |  |  | > 100 µM | 6.6 µM | 6.9 µM |  |  |  |
| COc1cc2oc(-c3ccc(Nc4ccc(F)cc4)cc3)cc(=O)c2c(OC)c1OC | 9.7 µM | < 50% | < 50% | 77.6 µM |  |  |  |  |  |
